Laboratory results taken from patent US20200400567A1, “FUSION POLYPEPTIDE” (PEKING UNIVERSITY, priority 2017, published 2020).
“Also recorded” adds a separate entry of the source. Values belong to the molecule of their own block, whether it stands above or below them.

Columns and labels:
[1] = tested on: human β2 adrenergic receptor; test: GRAB-EPI sensor fluorescence response (ΔF/F0) to ISO, drug perfusion in HEK293T cells; format: cell-based; conditions: GRAB-EPI 1.0 in cells, blocking agent mixed with ISO
Method: (§1) After DNA encoding specific GRAB sensor was introduced into cells by transfection, fluorescence imaging combined with perfusion experiment was. The imaging capture of HEK293T cells was performed using an Olympus IX81 inverted microscope, 40×NA: 1.35 oil lens, 475/28 excitation light filter, and 515LP emission light filter. The optical signal was collected by a Zyla sCMOS DG-152V-Cle FI camera (Andor), and Lambda DG-4 from Sutter Instuments company was used as a fluorescent light source. The exposure time was set to less than 50 ms and the acquisition frequency was 5 seconds. The entire imaging system was overall controlled by micromanager software.
The detection of the response of the GRAB sensor to the ligand (ΔF/F0) was performed using a drug perfusion method. […]
Fluorescence imaging data was processed using ImageJ software. For the performance of GRAB sensors in HEK293T cells and neurons, the fluorescence of entire cell body was selected as the data processing region. For living Drosophila imaging, fluorescence images on the same Z axis were analyzed by ImageJ software. The change in the fluorescence signal was indicated by its relative difference. The signal of background area without the expression of the sensor was first subtracted from the fluorescence signal, so as to obtain the real expression of the intensity of the fluorescent protein. […]

[2] = tested on: Gαq-mediated signal transduction pathway; test: TGFα release in Gαq stable cell lines; format: cell-based
Source text: The coupling of GRAB-ACh4.0 and downstream Gαq was detected. First, three stable cell lines were constructed based on the Gαq cell line: M3R (marked as CHRM3 in FIG. 51), GRAB-ACh4.0, and blank (marked as Gq in FIG. 51) cell lines; then, the release of TGFα was used to characterize the extent to which the Gαq protein was activated. […], causing the release of TGF-α with alkaline phosphatase even when there is no signal from Gαq. Therefore, TPA was added to cells as a positive control.

[3] = tested on: human acetylcholine receptor M3R subtype; test: GRAB-ACh sensor fluorescence response to ACh, drug perfusion in HEK293T cells; format: cell-based; conditions: GRAB-ACh 1.0 in cells, blocking agent mixed with ACh
Method: as §1
The detection of the response of the GRAB sensor to the ligand (ΔF/F0) was performed using a drug perfusion method. The cells were placed in a standard physiological solution, and the formula thereof is: […]
The pH of the physiological solution was adjusted to about 7.4, and the small molecule drug was diluted with a part of the physiological solution to formulate solutions of respective concentrations of the small molecule ligand. […] Unless explicitly specified, the concentration of isoproterenol (ISO) for perfusion was 2 μM, and the concentration of acetylcholine for perfusion was 100 μM.
The perfusion system was equipped on a microscope, including a solution-introduced system made of syringe for injection, a multi-way valve, an imaging workbench and a suction pump. During the perfusion process, the imaging workbench was placed above the objective lens of the inverted microscope, and then the slide on which cell plated were placed in the workbench. Perfusion of different drugs were performed by controlling the switches of different pipes. In order to control the level of the solution in the workbench, the perfusion speed was set to one drop or so per second. After each drug treatment, the cells were washed with a physiological solution for more than five minutes to ensure that there were no residual drugs that will affect subsequent experiments. After the end of each experiment, the perfusion pipe and the workbench were cleaned with 75% ethanol three times to ensure that the residual drugs and impurities were fully washed away.
Fluorescence imaging data was processed using ImageJ software. For the performance of GRAB sensors in HEK293T cells and neurons, the fluorescence of entire cell body was selected as the data processing region. For living Drosophila imaging, fluorescence images on the same Z axis were analyzed by ImageJ software. The change in the fluorescence signal was indicated by its relative difference. The signal of background area without the expression of the sensor was first subtracted from the fluorescence signal, so as to obtain the real expression of the intensity of the fluorescent protein. Then, by calculating the fluorescence value F after adding the drug and the average fluorescence value F0 before adding, the relative fluorescence change ΔF/F=(F−F0)/F0 was obtained as the fluorescence response of the sensor to a specific drug. The change of ΔF/F0 with time was further plotted by Origin 8.6 software.
Based on GRAB-ACh 1.0, this peptide linker was optimized. First, based on a flexible amino acid (glycine, alanine), the peptide segment was screened for optimal length. The specific strategy was to change the length of the peptide linkers at the N-terminus and C-terminus from 0 to 5 amino acids, respectively, and to randomly combine the N-terminus with C-terminus to obtain all possible permutations. Fusion protein expression vectors containing various arrangements were expressed in HEK293T cells and subjected to perfusion experiments.

[4] = tested on: human acetylcholine receptor M3R subtype; test: GRAB-ACh 1.0 in cultured rat cortical neurons, perfusion; format: cell-based
Method: Newborn Sprague-Dawley rats were used for the primary culture of rat neurons. After the skin of rat was cleaned with alcohol, the head was dissected with surgical instruments, the brain was removed out and the vascular membrane on the surface of the cortex was carefully removed. The cortical tissue was cut into pieces and placed in a 0.25% trypsin solution, and digested for 10 minutes in an incubator at 37° C. After the digestion, the digestion was terminated with DMEM medium containing 5% FBS, and the cells were further isolated by slowly pipetting up and down ten times with a pipette. After standing for 5 minutes, the pellet containing the tissue debris was discarded and the upper layer solution was collected and centrifuged at 1,000 rpm for 5 minutes in a centrifuge. Thereafter, the supernatant was discarded and the neurons were resuspended with the Neurobasal+B27 medium which was used for culturing the neurons. The cell density was calculated using a cell counting chamber. After that, the cells were diluted at a density of 0.5-1×10^6 cells/ml and plated on the slides coated with poly-lysine (purchased from Sigma). […]
The optical response of neurons expressing the neurotransmitter sensor was observed by perfusion with a neurotransmitter solution. The neurotransmitter-specific optical signals were recorded, which were fast and stable, and have good repeatability in different neurons. […]

[5] = target: GRAB-Oxt-Cter580 sensor (human); test: cell-based or functional assay
GRAB-Oxt-Cter580 sensor (human), sequence (chain, as listed by the source limits assumed): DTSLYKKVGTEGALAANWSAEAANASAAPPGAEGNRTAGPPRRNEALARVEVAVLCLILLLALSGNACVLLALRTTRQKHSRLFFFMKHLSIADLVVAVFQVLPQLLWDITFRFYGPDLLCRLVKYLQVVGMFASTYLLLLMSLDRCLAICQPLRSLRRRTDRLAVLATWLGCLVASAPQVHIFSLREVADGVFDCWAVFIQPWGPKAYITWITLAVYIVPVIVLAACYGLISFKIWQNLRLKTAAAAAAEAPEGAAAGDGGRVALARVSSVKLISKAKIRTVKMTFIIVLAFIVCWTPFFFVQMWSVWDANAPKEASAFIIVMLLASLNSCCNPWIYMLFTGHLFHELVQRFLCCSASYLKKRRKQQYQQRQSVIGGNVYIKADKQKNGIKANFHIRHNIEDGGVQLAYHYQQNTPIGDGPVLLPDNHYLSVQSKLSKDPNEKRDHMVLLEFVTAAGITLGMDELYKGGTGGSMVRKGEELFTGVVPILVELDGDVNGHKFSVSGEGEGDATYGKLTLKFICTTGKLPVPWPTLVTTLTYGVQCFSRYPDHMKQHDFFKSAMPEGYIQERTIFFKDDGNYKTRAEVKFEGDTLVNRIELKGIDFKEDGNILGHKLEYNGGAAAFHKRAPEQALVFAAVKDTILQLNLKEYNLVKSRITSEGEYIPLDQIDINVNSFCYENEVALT

[6] = tested on: human acetylcholine receptor M3R subtype; test: GRAB-ACh 1.0 in acute mouse hippocampus brain slices, local perfusion, two-photon imaging; format: cell-based, mice; conditions: GRAB-ACh 1.0 expressing cells in brain slices
Source text: The DNA encoding GRAB-ACh 1.0 sensor was packed in lentivirus and expressed in the hippocampal neurons of mice, and its fluorescence performance was detected by local perfusion of acetylcholine.

[7] = tested on: GRAB-GDA3.0 signal in mushroom body (MB); test: Odor-stimulated GRAB-GDA3.0 signal in mushroom body, in vivo two-photon imaging; parameters: species or system Drosophila; conditions: 10 μM antagonist in imaging solution, n=6
Method: Drosophila were kept in a 25-degree incubator with a standard medium. […] The adult Drosophila to be tested were transferred to a new culture tube within 0-2 days after emergence, and left at room temperature for 8-12 days. Before the imaging, the Drosophila were first fixed in a small dish, and then the square skull part near the eye was surgically removed to expose part of the brain. The adipose tissue and air sacs near the antennal lobes to be imaged were surgically removed to prevent interference with the fluorescent signal. In order to further reduce the degradation of image quality caused by the movement of Drosophila during the imaging, surgical forceps were used to cut the muscles underneath its halter. Throughout the dissection and imaging procedures, the brain of Drosophila was kept in a pre-chilled physiological solution, and the formula thereof is as follows: […]
Drosophila imaging was performed using an Olympus two-photon microscope, including Olympus BX61 WI microscope, 25×NA: 1.05 water lens, and Ti:Sapphire laser mode-locked laser for two-photon excitation. For GRAB sensor imaging experiments, the wavelength of the […] was set to 950 nm in order to successfully excite the fluorescent protein to produce fluorescence. The odor molecule isoamyl acetate (IA) used for stimulating Drosophila was purchased from Sigma, and was diluted in mineral oil at a ratio of 1:100. In the experiment, the isoamyl acetate was further diluted 5-40 times by mixing with air. The air mixed with odor molecules was provided at a position about 1 cm away from the tentacles of the Drosophila through a cavity about 1 cm wide on the experimental table. The odor molecule of different concentrations was tested by controlling the airflow. Each imaging cycle was 17.8 seconds, of which 5 to 10 seconds was the time for providing specific odor molecules. After the imaging experiment for odor function, the imaging area was scanned layer by layer with high resolution setting to obtain the distribution information of the olfactory bulb, which was later identified based on the information of olfactory bulb distribution at the antennal lobe reported in the literature.
The transgenic Drosophila UAS-GRAB-GDA3.0 was constructed to express the GRAB-GDA3.0 sensor in specific cells, driven by the corresponding GAL4 strain. First, GRAB-GDA3.0 was expressed in dopaminergic neurons (DAN) in all Drosophila, and the response induced by odor (isoamyl acetate) was examined by in vivo two-photon imaging (FIG. 39A).
A pharmacological study was performed on GRAB-GDA3.0.
The rate of GDA signal attenuation between normal Drosophila and Drosophila with reduced DAT expression was compared (this is the experiment of gene level research using DAT-RNAi described later). In DAN, the dopamine transporter (DAT) is located in the presynaptic membrane and […] DA intermittently and cyclically from the synapse. DAT-RNAi was used to inhibit DAT expression in DAN (FIG. 40G).

human DRD2 receptor = test: GRAB-GDA3.0 fluorescence response in HEK293T cells, drug perfusion; format: cell-based
Source text: There are 5 subtypes of human dopamine receptors in the body, which are named DRD1-DRD5. For constructing a fluorescent sensor, the receptors were screened preliminarily by inserting a fluorescent protein at any position in the third intracellular loop of the receptor. […] Specifically, for the third intracellular loop of the human DRD2 receptor, the insertion sites were set every 15 amino acids. Human DRD2 receptors inserted with circular permutated fluorescent proteins at different positions were expressed in HEK293T cells, and drug perfusion experiments were conducted with dopamine. […] After the positions sensitive to conformational change were determined, the surrounding amino acid sites thereof were further screened. The sites surrounding the amino acid position 252 at N-terminus and the sites surrounding the amino acid position 357 at the C-terminus were combined and different sensors were constructed. The sensors were expressed in HEK293T cells and subjected to drug perfusion experiments with dopamine. […] The peptide linkers were GG at the N-terminus and GGAAA at the C-terminus.

Molecule: Cc1ccc(OCC(O)C(C)NC(C)C)c2c1CCC2 (stereo not shown) [ICI]
effect of blocking agent on agonist (ISO)-induced fluorescence increase [1]: specifically blocked

Molecule: WT-M3R: natural M3 type acetylcholine receptor without cpEGFP insertion
activation of Gαq-mediated signal transduction pathway ([2]; gradient concentrations of ACh): activated the Gαq-mediated signal transduction pathway

Molecule: C[N+]1(C)[C@@H]2C[C@@H](OC(=O)C(O)(c3cccs3)c3cccs3)C[C@H]1[C@@H]1O[C@@H]12 [Tio, Tiotropium bromide]
effect of blocking agent on ligand (Ach)-induced fluorescence increase [3]: specifically blocked | effect of receptor blocker on response to acetylcholine [4]: can block | effect of antagonist on downstream signal induced by M3R ([2]; ACh): completely block

change in fluorescence signal (ΔF/F0) of the sensor on perfusion with the agonist (% ΔF/F0 at 1 µM Oxytocin) [5]: 10
Molecule: Oxytocin (from UniProt P01178 20-28) (peptide)

Molecule: C[N+](C)(C)CC#CCN1CCCC1=O [Oxo-M]
fluorescence response to agonist [6]: respond to; also recorded: obvious fluorescence enhancement

Molecule: O=C(CCCN1CCC(O)(c2ccc(Cl)cc2)CC1)c1ccc(F)cc1 [Haloperidol]
effect on odor (IA)-stimulated GDA signal in MB β' lobe ([7]; listed as halo): can be blocked | effect on odor (IA)-stimulated GDA signal in MB β' lobe ([7]; listed as haloperidol): completely blocked | activation or block of GRAB-GDA3.0 (human DRD2 receptor): blocked; also recorded: inhibited
